Results on 1 molecule are retold here after article PMC6390583 (BMC rheumatology, 2018).

The structures appear in SMILES notation. Where two headings read alike, the source gives them in different places. Where only a bound is given, the exact number is not on record here.

Usually IC50 stands for the concentration that gives 50% inhibition.

For series [1], the system named is IL-6 induced pSTAT3, CD14+ whole blood. Put plainly: IL-6 signaling in human whole blood, CD14+ monocytic population. The class given is cell-based. The settings on record: JAK 1.
The test system of series [2] is IL-6 induced pSTAT3, CD3+ whole blood. Description: IL-6 signaling in human whole blood, CD3+ T-cell population. The class given is cell-based. The settings on record: JAK 1.
In series [3] the test system is Oncostatin M (OSM) induced STAT3 phosphorylation. Put plainly: Oncostatin M induced STAT3 phosphorylation in TF-1 cells. The settings on record: Homo sapiens, JAK 1, N = 2, read-out: Human IC50, OSM pSTAT3. The class given is cell-based. The method, then: (§1) IL-6 and Oncostatin M (OSM) induced STAT3 phosphorylation was assessed in the human erythroleukemia TF-1 cell line. Erythropoietin-induced STAT5 phosphorylation was assessed in the human UT-7 cell line. IL-2 and IL-15 induced STAT5 phosphorylation was assessed in activated human T-cells. Detection of phosphorylated STATs was accomplished with the SureFire pSTAT5 or pSTAT3 Assay kit (Perkin Elmer, Hopkinton, MA) per standard manufacturer’s protocol, with the exception of an overnight incubation following addition of donor beads before detection on the EnVision (Perkin Elmer, Hopkinton, MA). IFNγ induced STAT1 phosphorylation was assessed in the CD14+ monocyte population in human PBMC by flow cytometry. CD14 BV421 was purchased from BD Biosciences (San Jose, CA). STAT1 PE ([…]) was purchased from ThermoFisher Scientific (Waltham, MA). IL-4 and IL-13 induced STAT6 phosphorylation and IL-31 induced STAT3 phosphorylation were assessed in adult human epithelial keratinocytes (HEKa, ThermoFisher Scientific, Waltham, MA) by flow cytometry. STAT6 PE (pY641) and STAT3 PE (Y705) were purchased from BD Biosciences (San Jose, CA).

Series [4] has as its system Erythropoietin-induced STAT5 phosphorylation. Description: Erythropoietin-induced STAT5 phosphorylation in UT-7 cells. The class given is cell-based. Particulars: Homo sapiens; UT7 cells, JAK 2; read-out: Human IC50, Epo pSTAT5. Here is the method:
as §1

Series [5] has as its system IL-2 induced STAT5 phosphorylation. Description: IL-2 induced STAT5 phosphorylation in activated T-cells. The class given is cell-based. The settings on record: T-blasts, JAK 1/3, read-out: Human IC50, IL-2 pSTAT5. Here is the method:
as §1

Series [6] deals with IL-4 induced STAT6 phosphorylation. Description: IL-4 induced STAT6 phosphorylation in HEKa. The class given is cell-based. The settings on record: Homo sapiens, JAK 1/3, read-out: Human IC50, IL-4 pSTAT6. Here is the method: as §1
For series [7], the system named is CD3-/CD16+/CD56+ NK cells. Description: Circulating NK cell analysis after 14 days dosing. The class given is in vivo, rat. Here is the method: Blood was collected and stained using BD MultiTest IMK kit (BD Biosciences, San Jose, CA) per manufacturer’s instructions. NK cell numbers were determined by using FlowJo analysis software (FlowJo, LLC, Ashland, OR) and by examining the CD3^−/CD16^+/CD56^+ population. The number of cells/μL was calculated by using the following equation: (# events in cell population/# of events in absolute bead count region) × (# beads per test/test volume), with the value beads per test indicated on the BD Trucount tube label.

For the next series, the target named is CDK2 (Homo sapiens, UniProt P24941). Description: trFRET binding kinome profiling. The method, then: (§2) JAK activity assays using isolated kinase domains in the presence of 0.1 mM ATP and trFRET kinome profiling were conducted as described previously (17).
The next series has as its target Erk2 (Homo sapiens, UniProt P28482). Description: trFRET binding kinome profiling. The method, then: as §2
For another series, the target named is JNK2 (Homo sapiens, UniProt P45984). Description: trFRET binding kinome profiling. The method, then:
as §2

The target in the next series is LCK (Homo sapiens, UniProt P06239). Description: trFRET binding kinome profiling. Here is the method: as §2
Sequence of LCK (P06239 whole entry, species assumed): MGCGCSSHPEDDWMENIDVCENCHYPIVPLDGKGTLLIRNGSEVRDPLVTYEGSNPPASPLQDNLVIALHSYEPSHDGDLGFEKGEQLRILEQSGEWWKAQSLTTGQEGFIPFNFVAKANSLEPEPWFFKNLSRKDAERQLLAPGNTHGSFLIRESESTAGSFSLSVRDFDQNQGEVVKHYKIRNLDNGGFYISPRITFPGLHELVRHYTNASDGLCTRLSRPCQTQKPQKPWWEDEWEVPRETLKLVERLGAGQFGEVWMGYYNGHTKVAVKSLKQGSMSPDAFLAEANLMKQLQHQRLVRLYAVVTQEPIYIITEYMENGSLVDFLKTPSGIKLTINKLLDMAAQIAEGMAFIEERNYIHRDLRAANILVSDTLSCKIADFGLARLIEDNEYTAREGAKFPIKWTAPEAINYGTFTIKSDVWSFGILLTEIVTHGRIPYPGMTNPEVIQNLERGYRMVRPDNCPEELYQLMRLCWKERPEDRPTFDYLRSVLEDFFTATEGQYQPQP
The target in a further series is MEK2 (Homo sapiens, UniProt P36507). Description: trFRET binding kinome profiling. The method, then: as §2
Sequence of MEK2 (P36507 whole entry, species assumed): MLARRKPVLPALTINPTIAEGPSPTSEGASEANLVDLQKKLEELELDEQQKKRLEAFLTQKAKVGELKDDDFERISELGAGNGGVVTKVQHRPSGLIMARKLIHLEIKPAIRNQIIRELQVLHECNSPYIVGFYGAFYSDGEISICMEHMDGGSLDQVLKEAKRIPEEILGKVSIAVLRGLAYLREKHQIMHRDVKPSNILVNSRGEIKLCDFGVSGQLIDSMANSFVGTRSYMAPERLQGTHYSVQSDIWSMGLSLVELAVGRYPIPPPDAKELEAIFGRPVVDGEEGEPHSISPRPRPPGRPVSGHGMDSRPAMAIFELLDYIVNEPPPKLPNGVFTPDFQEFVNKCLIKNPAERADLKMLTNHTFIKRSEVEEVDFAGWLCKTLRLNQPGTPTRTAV
In a further series the target is PKCzeta (Homo sapiens, UniProt Q05513). Put plainly: trFRET binding kinome profiling. Here is the method:
as §2

The next series concerns the target STK16 (Homo sapiens, UniProt O75716). Put plainly: trFRET binding kinome profiling. Here is the method: as §2
A further series addresses STK33 (Homo sapiens, UniProt Q9BYT3). Description: trFRET binding kinome profiling. Here is the method:
as §2

The target in a further series is Src (Homo sapiens, UniProt P12931). Put plainly: trFRET binding kinome profiling. The method, then:
as §2

The target of a further series is Syk (Homo sapiens, UniProt P43405). Description: trFRET binding kinome profiling. Here is the method: as §2
The next series addresses JAK1 (Homo sapiens, UniProt P23458). Put plainly: HTRF activity assay, recombinant JAK1 catalytic domain. The settings on record: JAK1 IC50 at varying ATP (0.01-1 mM), Cheng-Prusoff; data not shown. (In general: In TR-FRET formats the signal depends on donor and acceptor labels being close together.)

Sequence of Src (P12931 whole entry, species assumed): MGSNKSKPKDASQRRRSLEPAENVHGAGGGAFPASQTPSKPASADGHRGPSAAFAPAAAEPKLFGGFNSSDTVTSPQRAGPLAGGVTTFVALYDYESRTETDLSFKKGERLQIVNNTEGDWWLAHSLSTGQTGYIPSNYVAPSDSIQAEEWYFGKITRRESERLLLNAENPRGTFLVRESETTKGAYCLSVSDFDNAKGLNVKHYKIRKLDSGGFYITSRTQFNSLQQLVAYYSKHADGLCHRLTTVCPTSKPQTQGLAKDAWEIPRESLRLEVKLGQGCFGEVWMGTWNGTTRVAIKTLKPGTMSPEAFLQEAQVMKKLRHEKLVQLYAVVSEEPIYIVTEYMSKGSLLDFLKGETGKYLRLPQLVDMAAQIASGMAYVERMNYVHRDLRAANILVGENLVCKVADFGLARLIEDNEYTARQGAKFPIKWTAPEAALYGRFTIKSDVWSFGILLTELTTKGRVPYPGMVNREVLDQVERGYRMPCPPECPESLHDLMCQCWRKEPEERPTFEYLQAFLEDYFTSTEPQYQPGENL
Sequence of JAK1 (P23458 845-1142): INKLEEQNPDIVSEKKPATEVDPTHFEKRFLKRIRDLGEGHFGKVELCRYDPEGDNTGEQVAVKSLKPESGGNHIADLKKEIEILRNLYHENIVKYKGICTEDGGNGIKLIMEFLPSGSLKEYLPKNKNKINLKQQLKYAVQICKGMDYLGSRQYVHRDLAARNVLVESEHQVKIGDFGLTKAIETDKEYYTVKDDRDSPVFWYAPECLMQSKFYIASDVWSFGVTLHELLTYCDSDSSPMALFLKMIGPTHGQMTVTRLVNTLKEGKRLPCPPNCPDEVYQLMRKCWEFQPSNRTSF
Sequence of STK33 (Q9BYT3 whole entry, species assumed): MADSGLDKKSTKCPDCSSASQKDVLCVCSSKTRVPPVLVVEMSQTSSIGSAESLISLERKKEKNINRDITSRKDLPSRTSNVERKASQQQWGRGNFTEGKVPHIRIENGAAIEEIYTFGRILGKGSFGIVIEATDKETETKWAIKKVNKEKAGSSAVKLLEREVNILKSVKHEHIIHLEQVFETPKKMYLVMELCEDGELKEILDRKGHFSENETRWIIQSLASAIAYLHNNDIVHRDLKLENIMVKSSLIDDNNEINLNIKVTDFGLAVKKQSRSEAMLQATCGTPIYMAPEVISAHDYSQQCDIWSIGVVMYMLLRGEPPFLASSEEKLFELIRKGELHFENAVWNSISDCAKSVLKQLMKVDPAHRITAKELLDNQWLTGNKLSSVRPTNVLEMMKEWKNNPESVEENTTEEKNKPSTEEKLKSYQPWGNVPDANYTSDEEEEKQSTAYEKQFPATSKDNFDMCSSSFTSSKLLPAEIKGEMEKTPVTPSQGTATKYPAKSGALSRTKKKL
Sequence of PKCzeta (Q05513 whole entry): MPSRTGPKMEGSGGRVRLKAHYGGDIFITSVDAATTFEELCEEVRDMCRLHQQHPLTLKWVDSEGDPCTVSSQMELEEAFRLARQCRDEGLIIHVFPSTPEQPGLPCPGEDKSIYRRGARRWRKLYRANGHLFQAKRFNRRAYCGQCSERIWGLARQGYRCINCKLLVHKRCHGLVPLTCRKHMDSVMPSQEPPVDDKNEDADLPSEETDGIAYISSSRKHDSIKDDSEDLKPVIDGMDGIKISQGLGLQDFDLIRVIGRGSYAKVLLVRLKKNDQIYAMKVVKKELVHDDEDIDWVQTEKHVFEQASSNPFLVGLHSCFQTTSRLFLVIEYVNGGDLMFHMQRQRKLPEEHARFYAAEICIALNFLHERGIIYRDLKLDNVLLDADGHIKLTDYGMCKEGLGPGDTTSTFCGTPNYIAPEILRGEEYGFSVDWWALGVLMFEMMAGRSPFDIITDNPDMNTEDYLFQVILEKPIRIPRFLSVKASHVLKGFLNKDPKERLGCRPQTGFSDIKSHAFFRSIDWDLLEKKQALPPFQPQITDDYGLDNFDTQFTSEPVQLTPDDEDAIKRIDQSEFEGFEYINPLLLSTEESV
Sequence of Erk2 (P28482 whole entry, species assumed): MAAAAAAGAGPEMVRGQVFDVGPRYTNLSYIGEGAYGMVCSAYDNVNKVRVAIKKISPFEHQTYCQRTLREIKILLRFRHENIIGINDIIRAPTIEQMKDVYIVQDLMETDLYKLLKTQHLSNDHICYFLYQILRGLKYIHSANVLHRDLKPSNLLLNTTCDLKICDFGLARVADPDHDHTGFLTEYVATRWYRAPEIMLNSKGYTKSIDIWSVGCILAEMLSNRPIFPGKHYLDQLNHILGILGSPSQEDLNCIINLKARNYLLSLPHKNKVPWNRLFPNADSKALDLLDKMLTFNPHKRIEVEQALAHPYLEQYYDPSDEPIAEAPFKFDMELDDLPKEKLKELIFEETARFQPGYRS
Sequence of JNK2 (P45984 whole entry, species assumed): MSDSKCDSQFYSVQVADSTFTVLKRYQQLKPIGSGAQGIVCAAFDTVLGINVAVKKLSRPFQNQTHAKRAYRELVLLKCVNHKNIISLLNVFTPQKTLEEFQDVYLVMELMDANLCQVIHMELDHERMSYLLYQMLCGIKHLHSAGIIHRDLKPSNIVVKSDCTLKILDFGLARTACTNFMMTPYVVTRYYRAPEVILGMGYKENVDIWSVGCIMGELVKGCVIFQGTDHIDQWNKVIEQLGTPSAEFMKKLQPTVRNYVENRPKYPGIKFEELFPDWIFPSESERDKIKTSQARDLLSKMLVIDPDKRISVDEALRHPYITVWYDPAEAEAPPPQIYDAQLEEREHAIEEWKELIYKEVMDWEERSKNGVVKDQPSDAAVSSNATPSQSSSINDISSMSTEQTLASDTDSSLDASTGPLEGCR
Sequence of STK16 (O75716 whole entry, species assumed): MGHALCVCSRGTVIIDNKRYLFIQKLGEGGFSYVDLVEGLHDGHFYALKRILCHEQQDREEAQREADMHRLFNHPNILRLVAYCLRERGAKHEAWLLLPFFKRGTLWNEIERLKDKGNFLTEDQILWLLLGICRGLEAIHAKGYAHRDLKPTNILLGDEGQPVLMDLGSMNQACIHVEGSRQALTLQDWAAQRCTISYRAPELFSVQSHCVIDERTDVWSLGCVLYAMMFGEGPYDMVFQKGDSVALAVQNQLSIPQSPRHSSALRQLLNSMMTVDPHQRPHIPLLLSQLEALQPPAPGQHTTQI

`CC[C@@H]1CN(C(=O)NCC(F)(F)F)C[C@@H]1c1cnc2cnc3[nH]ccc3n12` [upadacitinib, (3S,4R)-3-ethyl-4-(3H-imidazo [1,2-a]pyrrolo [2,3-e]pyrazin-8-yl)-N-(2,2,2-trifluoroethyl) pyrrolidine-1-carboxamide]: the IC50 is 78 nM in series [1]; 207 nM in series [2]; 1.6 nM in series [3]; 649 nM in [4]; 13 nM in [5] (Homo sapiens, T-cell); 10 nM in [5]. For the same molecule, the half-inhibitory concentration (IC50) in series [6] is 2 nM; at CDK2, over 10000 nM; on Erk2, over 10000 nM; on JNK2 it was over 10000 nM; on LCK, over 10000 nM; on MEK2, over 10000 nM. Also, the IC50 on PKCzeta is over 10000 nM; at STK16, 9700 nM; on STK33 it was over 10000 nM; on Src, over 10000 nM; at Syk it was over 10000 nM. The “AUC60 for decrease of circulating NK cell numbers” value in series [7] (naive rats dosed orally for 14 days) is 480 ng·h/mL. Further, the “Decrease in circulating NK cells at AUC60” value in series [7] (rat, at AUC60 of paw swelling) was 25%. Further, the “Mechanism of JAK1 inhibition” value at JAK1 is listed as “ATP competitive inhibitor”.
